# What was measured:
# human 5HT2c receptor = target: T1, human 5HT2c receptor (Homo sapiens, UniProt P28335); test: 5HT2c binding procedure (competition binding against 3H-5HT); conditions: Swiss 3T3 mouse cells transfected with human 5HT2c receptor
# T1 construct: expressed in transfected cells; host or cells: Swiss 3T3 mouse cells
# T1 sequence (P28335 33-458): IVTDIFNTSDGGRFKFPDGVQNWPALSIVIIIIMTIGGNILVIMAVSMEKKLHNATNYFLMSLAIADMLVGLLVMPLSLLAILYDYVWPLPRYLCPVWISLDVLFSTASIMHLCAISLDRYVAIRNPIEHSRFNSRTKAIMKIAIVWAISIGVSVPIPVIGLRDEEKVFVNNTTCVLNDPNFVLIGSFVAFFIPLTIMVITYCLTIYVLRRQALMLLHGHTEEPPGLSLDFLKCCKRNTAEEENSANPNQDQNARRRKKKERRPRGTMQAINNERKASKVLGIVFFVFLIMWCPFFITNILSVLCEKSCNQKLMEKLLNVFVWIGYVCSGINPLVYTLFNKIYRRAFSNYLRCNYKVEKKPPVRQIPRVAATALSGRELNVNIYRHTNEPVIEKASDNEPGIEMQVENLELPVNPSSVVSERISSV
# Protocol: Affinity of compounds at the serotonin 5HT2c binding site is determined by competition binding in Swiss 3T3 mouse cells (available from the American Type Culture Collection (ATCC), Manassas, Va.) transfected with the human 5HT2c receptor against 3H-5HT. The method is adapted from Roth et al., J. of Pharm. And Exp. Therap., 260(3), 1362–1365 (1992). Cells are grown in DMEM high glucose medium, harvested, homogenized, centrifuged, and resuspended in 50 mM Tris-HCL. They are incubated at 37° C. for 15 minutes, centrifuged, and then resuspended into assay buffer (50 mM Tris-HCl, 4 mM CaCl2, 0.1% ascorbic acid, and 100 μM pargyline at pH 7.7) at 100 volumes per gram. Assay tubes contain 25 μL of 10 nM ^3H-5HT (1 nM final conc.), and 25 μl of vehicle (assay buffer), blank (10 μM mianserin), or test compound (10X final volume). 200 μl of tissue homogenate is added to each tube, vortexed, and incubated for 30 minutes at 37° C. Samples are then rapidly filtered under vacuum with a Skatron™ cell harvester (available from Molecular Devices Corporation, Sunnyvale, Calif.) using GF/B filters presoaked in 0.5% polyethyleneimine (PEI), and washed with 2×5 mL cold 50 mM Tris-HCl. Filter mats are removed and counted in a Wallac Betaplate counter (available from PerkinElmer Life Sciences, Gaithersburg, Md.). Percent inhibition of specific binding by test compounds is used to calculate the Ki, or extrapolate concentration of test compound necessary to inhibit one-half of the total specific binding for each compound.
# rat 5HT2A receptor = target: T2, rat 5HT2A receptor (Rattus norvegicus, UniProt P14842); test: 5HT2A binding procedure (competition binding using 125I-DOI); conditions: NIH 3T3 mouse cells transfected with rat 5HT2A receptor
# T2 construct: expressed in transfected cells; host or cells: NIH 3T3 mouse cells
# Protocol: Affinity of compounds at the serotonin 5HT2A binding site is determined by competition binding in NIH 3T3 mouse cells transfected with the rat 5HT2A receptor using 1251-DOI. The method was adapted from Leonhardt et al., Molecular Pharmacology, 42, 328–335 (1992). Frozen cell paste is homgenized in 50 mM tris-HCl buffer pH 7.4 containing 2 mM MgCl2 using a Polytron and centrifuged at 45000×g for ten minutes. The resulting pellet is resuspended in fresh ice-cold 50 mM tris-HCl buffer pH 7.4 containing 2 mM MgCl2 using a Polytron™ and centrifuged again at 45000×g for ten minutes. The final pellet is resuspended in 50 mM tris-HCl buffer pH 7.4 containing 2 mM MgCl2 at a concentration of 5 mg/mL. Wells in a 96 well plate contain 25 μL of 0.7 nM 1251-DOI (70 pM final conc.), and 25 μL of vehicle (assay buffer), blank (10 μM cinanserin), or test compound (10× final volume). […] Filter mats are removed, dried and counted in a Wallac Betaplate counter. Concentration-response curves of the % inhibition of specific binding and log concentration by test compounds was used to determine the IC50 for each compound and the Ki value calculated based on the Cheng-Prusof equation (Ki=IC50/(1+(L/Kd)), where L is the concentration of the radioligand used in the binding assay and the Kd is based on previous saturation studies with the radioligand.
# 5-HT2c receptor = test: Functional assay (FLIPR calcium, Fluo 4-AM) in 5-HT2c expressed cells; type: cell-based; conditions: at 10 μM; 5-HT2c expressed NIH 3T3 cells
# Protocol: (§1) Swiss 3T3 cells expressing r-5HT2C, r-5HT2A, h-5HT2C or h-5HT2A receptors are seeded at a density of 12,500 cells/well in 384 well black/clear collagen-coated plates. Forty eight (48) hrs later the cells are loaded with the calcium sensitive dye, Fluo 4-AM (4 μM dissolved in DMSO containing pluronic acid) in serum free DMEM in the presence of probenicid (2.5 mM) for 75 minutes at 37° C. in a CO2 incubator. Unincorporated dye is removed by washing 3 times with a HEPES-buffered saline containing probenicid (2.5 mM) using a Skatron™ cell washer (final volume 30 μL).
# (§2) Plates are added to a fluorometric imaging plate reader (FLIPR 384 available from Molecular Devices Corporation) individually and fluorescence measurements are taken every 2 seconds over an 85 seconds period. Test compound additions are made simultaneously to all 384 wells after 20 seconds of baseline recording. Concentration-response curves are generated using Graphpad Prism™ (available from GraphPad Software, Inc., San Diego, Calif.) and agonist efficacies are generated as % of the response to 10 μM 5-HT (considered as 100%). Estimation of antagonist potencies (functional Kis) are generated by measuring inhibition of the test compound response to 5-HT (10 nM for 5-HT2C and 50 nM for 5-HT2A) and applying the Cheng Prusoff equation.
# The functional data for the compounds listed in the Examples above utilizing the 5-HT2c expressed NIH 3T3 cells is summarized below.
# 5-HT2a receptor = test: Functional assay (FLIPR calcium, Fluo 4-AM) in 5-HT2a expressed cells; type: cell-based; conditions: 5-HT2a expressed NIH 3T3 cells
# Protocol: as §1, §2
# The functional data for the compounds listed in the Examples above utilizing the 5-HT2a expressed NIH 3T3 cells is summarized below.
# T2 sequence (P14842 whole entry): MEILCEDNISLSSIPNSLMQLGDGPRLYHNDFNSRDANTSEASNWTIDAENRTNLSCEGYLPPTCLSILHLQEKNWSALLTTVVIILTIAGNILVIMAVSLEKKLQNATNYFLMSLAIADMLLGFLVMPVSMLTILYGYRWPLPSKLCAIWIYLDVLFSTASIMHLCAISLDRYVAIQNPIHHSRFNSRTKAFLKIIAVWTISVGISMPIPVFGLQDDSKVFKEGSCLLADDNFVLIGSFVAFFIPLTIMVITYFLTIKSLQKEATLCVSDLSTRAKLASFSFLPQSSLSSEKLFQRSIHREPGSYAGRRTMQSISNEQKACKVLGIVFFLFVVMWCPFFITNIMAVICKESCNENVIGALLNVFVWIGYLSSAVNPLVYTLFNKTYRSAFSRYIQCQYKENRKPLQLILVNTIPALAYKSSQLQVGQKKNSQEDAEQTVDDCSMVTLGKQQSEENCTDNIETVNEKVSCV
5HT2a binding activity (rat 5HT2A receptor),Structure (SMILES),Ki (human 5HT2c receptor),5-HT2c functional activity (5-HT2c receptor),5-HT2a functional activity (5-HT2a receptor; at 10 μM),functional mode at 5-HT2a (partial agonist / full antagonist) (5-HT2a receptor)
no binding activity,"C[C@@H]1CN(c2ccnc(OCc3cccc(Cl)c3)n2)C[C@H](C)N1 [Example 1-NN, 2-(3-Chloro-benzyloxy)-4-[(3R,5S)-dimethyl-piperazin-1-yl]-pyrimidine]",> 0.5 µM,no 5-HT2c functional activity,no functional activity,–
–,"Cc1cccc(COc2nccc(N3CCNCC3)n2)n1.Cl [Example 5-C, 2-(6-Methyl-pyridin-2-ylmethoxy)-4-piperazin-1-yl-pyrimidine, hydrochloride]",> 0.5 µM,–,–,full antagonists
–,"Cl.c1ccc(COc2nccc(N3CCNCC3)n2)nc1 [Example 5-B, 4-Piperazin-1-yl-2-(pyridin-2-ylmethoxy)-pyrimidine, hydrochloride]",> 0.5 µM,–,–,full antagonists
